Assay results from patent US10168342B2, “Lipid probes and uses thereof” (THE SCRIPPS RESEARCH INSTITUTE, priority 2015, dated 2019).

Experiments:
human NUCB1 = target: T1, human NUCB1 (Homo sapiens, UniProt Q02818); test: FluoPol assay / high throughput screen with Fl-AEA and recombinant NUCB1; type: binding; details: competitor lipids, recombinant NUCB1
T1 construct: made in house; host or cells: Escherichia coli BL21(DE3)
T1 sequence (Q02818 27-461): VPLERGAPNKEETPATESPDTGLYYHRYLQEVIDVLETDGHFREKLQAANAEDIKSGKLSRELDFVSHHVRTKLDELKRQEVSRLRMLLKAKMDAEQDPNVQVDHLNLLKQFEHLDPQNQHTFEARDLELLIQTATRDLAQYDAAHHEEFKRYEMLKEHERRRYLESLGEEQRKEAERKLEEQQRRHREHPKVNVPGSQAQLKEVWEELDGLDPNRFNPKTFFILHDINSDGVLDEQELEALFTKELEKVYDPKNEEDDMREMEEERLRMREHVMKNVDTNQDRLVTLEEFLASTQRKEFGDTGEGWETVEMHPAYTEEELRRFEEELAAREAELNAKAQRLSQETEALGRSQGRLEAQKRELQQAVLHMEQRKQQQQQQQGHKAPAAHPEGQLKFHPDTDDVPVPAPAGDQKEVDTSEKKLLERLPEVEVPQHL
Method: FluoPol conditions were optimized by screening various concentrations of Fl-AEA, hNUCB1, CaCl2 and Pluronic F-127 against positive and negative controls. Arachidonic acid (20 μM final) was used as a positive control, and DMSO as a negative. Additionally, protein-free controls were used to normalize for background signal. […] The Z′-factor for these conditions was determined to be 0.54, indicating a high signal to noise assay.
A 10 μL solution of hNUCB1 (1 μM), Fl-AEA (0.5 μM), CaCl2 (20 μM), and Pluronic F-127 (0.01%) was added to a Greiner 384-well plate. Additionally, in some wells protein was omitted to serve as a blank control for background signal. To the protein containing wells 16,000 compounds (50 nL in DMSO, 2 mM) from the Maybridge Hitfinder library were added by a pin-tool robot. Additionally, on each plate to some wells arachidonic acid (20 μM final) or DMSO were added as positive and negative controls to allow normalization between plates. The plates were allowed to incubate for 5 minutes at room temperature, then fluorescence polarization was measured by measuring fluorescence intensity through polarized 595 nm filters. Hits were selected based on maximal probe competition.

NENF = target: T2, NENF (Homo sapiens, UniProt Q9UMX5); test: In vitro gel-based competition of AEA-DA probe labeling of NENF; type: binding; details: competitors 1-100 μM, NENF-transfected HEK293T lysates
T2 construct: Full-length cDNAs encoding for the each protein of interest were subcloned into pcDNA3.1 myc-His A; Myc (myc-His of pcDNA3.1 myc-His A); expressed in transfected cells; host or cells: HEK293T (lysates)
T2 sequence (Q9UMX5 32-172, species assumed): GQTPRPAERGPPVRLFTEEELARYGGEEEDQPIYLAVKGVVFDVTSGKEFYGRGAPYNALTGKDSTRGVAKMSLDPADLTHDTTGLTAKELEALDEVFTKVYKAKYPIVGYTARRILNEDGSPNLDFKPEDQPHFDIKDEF
Method: Full-length cDNAs encoding for the each protein of interest were subcloned into pcDNA3.1 myc-His A (Invitrogen) or used directly for transfections if available in a eukaryotic expression vector. HEK293T cells were grown to ˜70% confluence under standard growth conditions before adding the appropriate cDNA [control cells (“mock”) received an equal amount of empty pcDNA3.1 myc-His A vector] and FuGENE 6 or X-tremeGENE HP (Roche) transfection reagent according to the manufacturer's instructions. Cells were incubated for 36-48 hours before labeling in situ or harvesting for in vitro experiments.
Cell lysates (1.0 mg/mL), the indicated lipid probe (2.5 or 5 μM) and, for recombinant NUCB1 competition experiments, purified hNUCB1 (250 nM) and CaCl2 (100 μM) were mixed on ice. […] The samples were then irradiated with UV light and subjected to previously described click chemistry conditions. As before, each reaction was quenched with 4×SDS loading buffer (17 μL), and proteins were resolved using SDS-PAGE (10% acrylamide gel) and analyzed by in-gel fluorescent scanning on a Hitachi FMBIO-II flatbed fluorescence scanner. NUCB1 competition was quantitatively assessed by measuring the fluorescent intensity of the corresponding gel band using ImageJ 1.48v and normalizing this value by a non-competed gel band to control for loading differences.
Metabolite data are shown as mean±SEM (n=3-5/group). Differences between two groups were determined using Student's t test (unpaired, two-tailed) and significance was denoted for P values<0.05.

[1] = target: T3, lipid-binding proteins in Neuro2a cells (Mus musculus, UniProt Q9R0P6); test: SILAC MS mapping of lipid probe targets (probe-versus-No UV, probe-versus-probe) in Neuro2a cells; type: cell-based; details: AEA-DA probe vs NoUV
T3 construct: endogenous in cells; host or cells: Neuro2a
T3 sequence (Q9R0P6 whole entry): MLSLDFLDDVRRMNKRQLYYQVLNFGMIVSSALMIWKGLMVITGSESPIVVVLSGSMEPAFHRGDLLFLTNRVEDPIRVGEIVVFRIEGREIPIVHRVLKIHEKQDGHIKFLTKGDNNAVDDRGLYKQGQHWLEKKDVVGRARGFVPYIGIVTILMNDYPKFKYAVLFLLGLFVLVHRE

[2] = target: T4, lipid-binding proteins in Neuro2a cells (Mus musculus, UniProt P21619); test: as above; type: cell-based; details: protein Lmnb2, AEA-DA probe, No UV control
T4 construct: endogenous in cells; host or cells: Neuro2a
T4 sequence (P21619 whole entry): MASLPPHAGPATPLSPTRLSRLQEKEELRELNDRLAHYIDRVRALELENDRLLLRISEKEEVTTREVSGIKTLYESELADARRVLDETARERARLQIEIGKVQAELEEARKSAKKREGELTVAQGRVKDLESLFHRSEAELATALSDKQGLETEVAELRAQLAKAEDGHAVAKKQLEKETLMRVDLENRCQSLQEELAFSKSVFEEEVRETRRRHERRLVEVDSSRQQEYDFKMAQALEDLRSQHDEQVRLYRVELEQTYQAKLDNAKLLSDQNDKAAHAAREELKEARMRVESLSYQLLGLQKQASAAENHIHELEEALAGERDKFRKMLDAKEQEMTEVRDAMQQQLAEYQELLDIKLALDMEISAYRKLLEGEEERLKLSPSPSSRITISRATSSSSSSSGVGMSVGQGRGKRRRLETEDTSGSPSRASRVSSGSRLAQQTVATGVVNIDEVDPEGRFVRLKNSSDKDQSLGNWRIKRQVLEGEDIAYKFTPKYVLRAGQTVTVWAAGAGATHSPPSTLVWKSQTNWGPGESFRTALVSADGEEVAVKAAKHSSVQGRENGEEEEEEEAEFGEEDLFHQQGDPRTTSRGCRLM

[3] = target: T5, lipid-binding proteins in Neuro2a cells (Mus musculus, UniProt Q8BJ03); test: as above; type: cell-based; details: protein Cox15, AEA-DA probe, No UV control
T5 construct: endogenous in cells; host or cells: Neuro2a
T5 sequence (Q8BJ03 whole entry): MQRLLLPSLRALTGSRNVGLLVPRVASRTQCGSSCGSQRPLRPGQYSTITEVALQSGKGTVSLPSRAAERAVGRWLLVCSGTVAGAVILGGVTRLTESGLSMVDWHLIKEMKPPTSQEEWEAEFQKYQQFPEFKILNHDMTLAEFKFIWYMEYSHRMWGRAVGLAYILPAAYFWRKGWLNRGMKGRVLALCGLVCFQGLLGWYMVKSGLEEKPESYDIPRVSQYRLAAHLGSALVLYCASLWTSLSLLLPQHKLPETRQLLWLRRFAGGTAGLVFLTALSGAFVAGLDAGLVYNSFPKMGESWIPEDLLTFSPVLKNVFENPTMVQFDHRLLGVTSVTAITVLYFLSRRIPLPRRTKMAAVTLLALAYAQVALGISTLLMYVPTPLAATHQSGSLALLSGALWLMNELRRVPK

[4] = target: T6, lipid-binding proteins in Neuro2a cells (Mus musculus, UniProt Q8VCB1); test: as above; type: cell-based; details: AEA-DA probe vs NoUV
T6 construct: endogenous in cells; host or cells: Neuro2a
T6 sequence (Q8VCB1 whole entry): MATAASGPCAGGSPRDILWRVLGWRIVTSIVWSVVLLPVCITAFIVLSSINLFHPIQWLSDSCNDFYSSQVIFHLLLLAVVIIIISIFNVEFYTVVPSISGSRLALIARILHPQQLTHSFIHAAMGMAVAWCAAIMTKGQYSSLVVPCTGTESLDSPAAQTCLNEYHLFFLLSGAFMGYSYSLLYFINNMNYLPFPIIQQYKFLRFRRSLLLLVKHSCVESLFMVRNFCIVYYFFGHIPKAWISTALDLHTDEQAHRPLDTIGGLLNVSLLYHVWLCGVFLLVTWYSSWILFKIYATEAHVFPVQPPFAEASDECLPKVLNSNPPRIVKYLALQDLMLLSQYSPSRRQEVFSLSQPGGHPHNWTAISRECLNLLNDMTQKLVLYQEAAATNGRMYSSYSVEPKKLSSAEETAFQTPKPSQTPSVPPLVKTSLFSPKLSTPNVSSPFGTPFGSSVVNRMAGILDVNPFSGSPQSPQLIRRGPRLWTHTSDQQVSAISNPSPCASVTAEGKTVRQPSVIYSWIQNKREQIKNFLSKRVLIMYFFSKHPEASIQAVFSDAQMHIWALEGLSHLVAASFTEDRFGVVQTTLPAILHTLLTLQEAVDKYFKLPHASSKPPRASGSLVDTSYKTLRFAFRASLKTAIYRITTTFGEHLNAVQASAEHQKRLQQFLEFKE

[5] = target: T7, lipid-binding proteins in Neuro2a cells (Mus musculus, UniProt Q924Z4); test: as above; type: cell-based; details: AEA-DA probe vs NoUV
T7 construct: endogenous in cells; host or cells: Neuro2a
T7 sequence (Q924Z4 whole entry): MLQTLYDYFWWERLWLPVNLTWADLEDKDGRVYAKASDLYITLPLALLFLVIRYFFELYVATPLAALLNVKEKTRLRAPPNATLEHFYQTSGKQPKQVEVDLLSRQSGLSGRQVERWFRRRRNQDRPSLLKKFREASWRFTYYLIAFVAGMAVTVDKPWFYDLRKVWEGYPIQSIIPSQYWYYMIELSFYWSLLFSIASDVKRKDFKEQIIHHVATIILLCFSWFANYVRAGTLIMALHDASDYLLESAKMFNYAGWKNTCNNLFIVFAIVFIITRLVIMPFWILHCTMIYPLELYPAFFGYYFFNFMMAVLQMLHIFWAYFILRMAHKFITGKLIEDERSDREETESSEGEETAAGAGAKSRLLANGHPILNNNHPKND

[6] = target: T8, lipid-binding proteins in Neuro2a cells (Mus musculus, UniProt Q60930); test: as above; type: cell-based; details: AEA-DA probe vs NoUV
T8 construct: endogenous in cells; host or cells: Neuro2a
T8 sequence (Q60930 whole entry): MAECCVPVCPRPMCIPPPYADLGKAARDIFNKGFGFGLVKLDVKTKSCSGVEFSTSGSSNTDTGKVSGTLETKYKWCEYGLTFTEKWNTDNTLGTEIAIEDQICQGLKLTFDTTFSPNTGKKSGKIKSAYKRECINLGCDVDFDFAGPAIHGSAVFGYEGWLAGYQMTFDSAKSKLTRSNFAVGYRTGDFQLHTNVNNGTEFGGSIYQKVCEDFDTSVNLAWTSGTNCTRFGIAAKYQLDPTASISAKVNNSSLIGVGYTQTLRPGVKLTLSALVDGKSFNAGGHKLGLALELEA

[7] = target: T9, lipid-binding proteins in Neuro2a cells (Mus musculus, UniProt Q91VM5); test: as above; type: cell-based; details: protein Rbmxl1, AEA-DA probe, No UV control
T9 construct: endogenous in cells; host or cells: Neuro2a
T9 sequence (Q91VM5 whole entry): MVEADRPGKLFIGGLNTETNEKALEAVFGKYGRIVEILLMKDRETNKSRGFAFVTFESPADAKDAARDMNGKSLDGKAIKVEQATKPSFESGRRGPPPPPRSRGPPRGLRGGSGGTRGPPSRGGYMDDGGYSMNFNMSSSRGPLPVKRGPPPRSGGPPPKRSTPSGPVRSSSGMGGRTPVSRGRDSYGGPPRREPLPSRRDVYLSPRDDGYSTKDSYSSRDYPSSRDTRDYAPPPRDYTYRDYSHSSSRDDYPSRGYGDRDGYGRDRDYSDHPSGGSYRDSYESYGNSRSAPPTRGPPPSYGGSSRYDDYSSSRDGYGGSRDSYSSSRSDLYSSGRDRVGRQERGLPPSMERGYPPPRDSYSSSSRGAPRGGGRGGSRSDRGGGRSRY

[8] = target: T10, lipid-binding proteins in Neuro2a cells (Mus musculus, UniProt P45878); test: as above; type: cell-based; details: protein Fkbp2, AEA-DA probe, No UV control
T10 construct: endogenous in cells; host or cells: Neuro2a
T10 sequence (P45878 23-140): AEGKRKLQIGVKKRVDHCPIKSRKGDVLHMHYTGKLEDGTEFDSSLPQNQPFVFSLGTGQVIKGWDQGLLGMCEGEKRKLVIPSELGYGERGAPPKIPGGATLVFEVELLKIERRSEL

[9] = target: T11, lipid-binding proteins in Neuro2a cells (Mus musculus, UniProt Q8VCX5); test: as above; type: cell-based; details: protein Micu1, AEA-DA probe, No UV control
T11 construct: endogenous in cells; host or cells: Neuro2a
T11 sequence (Q8VCX5 34-477): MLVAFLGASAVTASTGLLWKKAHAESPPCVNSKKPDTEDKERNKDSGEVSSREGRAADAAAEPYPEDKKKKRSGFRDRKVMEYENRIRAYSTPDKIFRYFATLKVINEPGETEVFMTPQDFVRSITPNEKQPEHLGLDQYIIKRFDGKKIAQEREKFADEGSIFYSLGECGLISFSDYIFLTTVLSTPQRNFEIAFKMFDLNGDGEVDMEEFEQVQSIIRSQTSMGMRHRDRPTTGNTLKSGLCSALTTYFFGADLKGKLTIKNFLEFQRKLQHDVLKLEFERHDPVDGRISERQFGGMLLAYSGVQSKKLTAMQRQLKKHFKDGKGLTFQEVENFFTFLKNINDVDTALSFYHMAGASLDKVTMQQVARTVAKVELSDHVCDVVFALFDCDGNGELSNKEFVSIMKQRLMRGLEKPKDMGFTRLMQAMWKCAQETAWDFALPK

[10] = target: T12, lipid-binding proteins in Neuro2a cells (Mus musculus, UniProt Q99JY4); test: as above; type: cell-based; details: AEA-DA probe vs NoUV
T12 construct: endogenous in cells; host or cells: Neuro2a
T12 sequence (Q99JY4 whole entry): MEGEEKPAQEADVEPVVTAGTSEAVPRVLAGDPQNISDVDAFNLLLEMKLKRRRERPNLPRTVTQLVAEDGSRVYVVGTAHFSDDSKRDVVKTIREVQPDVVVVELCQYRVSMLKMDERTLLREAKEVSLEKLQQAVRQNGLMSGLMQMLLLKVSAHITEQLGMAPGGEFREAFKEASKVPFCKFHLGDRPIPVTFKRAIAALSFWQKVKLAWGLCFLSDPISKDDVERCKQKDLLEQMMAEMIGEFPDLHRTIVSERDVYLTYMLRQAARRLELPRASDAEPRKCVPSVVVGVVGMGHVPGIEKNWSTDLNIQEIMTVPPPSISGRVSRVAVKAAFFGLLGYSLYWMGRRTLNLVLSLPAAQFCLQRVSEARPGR

[11] = target: T13, lipid-binding proteins in Neuro2a cells (Mus musculus, UniProt Q8BVU5); test: as above; type: cell-based; details: protein Nudt9, AEA-DA probe, No UV control
T13 construct: endogenous in cells; host or cells: Neuro2a
T13 sequence (Q8BVU5 47-350): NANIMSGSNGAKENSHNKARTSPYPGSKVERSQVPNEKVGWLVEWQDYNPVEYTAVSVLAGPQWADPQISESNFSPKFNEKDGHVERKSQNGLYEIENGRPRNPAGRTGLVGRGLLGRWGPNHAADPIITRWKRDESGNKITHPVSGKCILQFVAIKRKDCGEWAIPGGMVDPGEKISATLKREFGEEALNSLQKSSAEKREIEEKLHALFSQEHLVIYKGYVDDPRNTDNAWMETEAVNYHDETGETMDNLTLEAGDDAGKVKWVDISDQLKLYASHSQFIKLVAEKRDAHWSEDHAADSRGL

[12] = target: T14, lipid-binding proteins in Neuro2a cells (Mus musculus, UniProt Q924D0); test: as above; type: cell-based; details: protein Rtn4ip1, AEA-DA probe, No UV control
T14 construct: endogenous in cells; host or cells: Neuro2a

[13] = target: T15, lipid-binding proteins in Neuro2a cells (Mus musculus, UniProt Q61712); test: as above; type: cell-based; details: AEA-DA probe vs NoUV
T15 construct: endogenous in cells; host or cells: Neuro2a
T15 sequence (Q61712 44-552): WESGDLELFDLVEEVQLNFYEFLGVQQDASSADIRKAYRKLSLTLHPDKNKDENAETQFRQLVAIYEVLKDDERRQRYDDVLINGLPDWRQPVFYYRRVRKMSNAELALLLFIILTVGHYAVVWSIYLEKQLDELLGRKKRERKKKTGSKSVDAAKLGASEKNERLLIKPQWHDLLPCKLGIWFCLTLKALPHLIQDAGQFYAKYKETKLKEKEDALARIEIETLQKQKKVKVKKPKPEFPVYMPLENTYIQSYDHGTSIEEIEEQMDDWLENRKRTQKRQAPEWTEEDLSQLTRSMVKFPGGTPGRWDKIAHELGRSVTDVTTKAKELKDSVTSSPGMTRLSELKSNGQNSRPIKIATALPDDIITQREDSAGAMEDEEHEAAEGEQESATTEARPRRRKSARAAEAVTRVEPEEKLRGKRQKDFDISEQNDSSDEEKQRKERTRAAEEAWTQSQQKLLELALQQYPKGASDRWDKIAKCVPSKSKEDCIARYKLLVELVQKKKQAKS

`CCCCC/C=C\C/C=C\C/C=C\C/C=C\CCCC(=O)NCCO` [AEA, anandamide, reference compound] was tested, and the “suppression of the NUCB1-FluoPol signal (blockade of Fl-AEA binding)” value (human NUCB1) was “Concentration-dependent suppression” and the “competition of AEA-DA probe labeling of recombinant NENF” value (NENF) was “competitively blocked”.

`C#CCCCC1(CC/C=C\C/C=C\C/C=C\CCCC(=O)NCCO)N=N1` [AEA-DA, (5Z,8Z,11Z)-N-(2-hydroxyethyl)-14-(3-(pent-4-yn-1-yl)-3H-diazirin-3-yl)tetradeca-5,8,11-trienamide] was tested, and the “SILAC ratio, SEC11A (P67812)” value [1] was 5.4, the “SILAC ratio, AEA-DA probe versus No UV” value [2] was 20.0 and the “SILAC ratio, AEA-DA probe versus No UV” value [3] was 12.3. The “SILAC ratio, TMEM48 (Q8VCB1)” value [4] was 14.5, the “SILAC ratio, CERS2 (Q924Z4)” value [5] was 17.1 and the “SILAC ratio, VDAC2 (P45880)” value [6] was 16.5. The “SILAC ratio, AEA-DA probe versus No UV” value [7] was 6.0, the “SILAC ratio, AEA-DA probe versus No UV” value [8] was 5.6 and the “SILAC ratio, AEA-DA probe versus No UV” value [9] was 20.0. The “SILAC ratio, TRABD (Q99JY4)” value [10] was 12.0, the “SILAC ratio, AEA-DA probe versus No UV” value [11] was 20.0 and the “SILAC ratio, AEA-DA probe versus No UV” value [12] was 15.1. The “SILAC ratio, DNAJC1 (Q96KC8)” value [13] was 20.0.
